# From US20210379035A1, “Methods Of Treating Fabry Patients Having Renal Impairment” (Amicus Therapeutics, Inc., priority 2017, published 2021)
# Where two headings read alike, the source gives them in different places.
# What was measured:
# Format in all cases: in vivo, human
# [1] = Plasma migalastat concentration in two Fabry patients with renal impairment (Example 3); conditions: for concentration at 3 h: 3 Hrs Post
# Procedure: Thus, two Fabry patients with renal impairment were evaluated. One patient (P1) had moderate renal impairment, while the other patient (P2) had severe renal impairment. […] The comparison with the results from the ERT-naïve study allows for comparison of PK in the Fabry population with mostly normal, but some mild and a few moderately impaired Fabry patients. None of the patients in the ERT-naïve study had severe renal impairment because these patients were excluded from the study.
# [2] = system: plasma lyso-GB3; experiment: ERT-naïve study: plasma lyso-Gb3
# Procedure: One study was a 24-month trial, including a 6-month double-blind, placebo-controlled period, in 67 ERT-naïve patients. The other study was an active-controlled, 18-month trial in 57 ERT-experienced patients with a 12-month open-label extension (OLE). Both the ERT-naïve and ERT-experienced studies included Fabry patients having an eGFR of ≥30 mL/min/1.73 m^2.
# A further analysis of data from these studies examined annualized change in eGFRCKD-EPI, LVMi, WBC α-Gal A activity and plasma lyso-Gb3 levels based on renal function at baseline. The results for each renal subgroup are shown in Table 9 below, with the ERT-naïve study subgroups based on eGFRMDRD and the ERT-experienced study subgroups based on mGFRiohexol.
# [3] = Single-dose renal impairment PK and safety study in non-Fabry subjects (Example 1); conditions: human, plasma, oral, 150 mg, non-Fabry; for half-life: read-out: t1/2 (converted)
# Procedure: The eGFR was estimated by the Cockcroft-Gault equation per the FDA Guidance for renal impairment studies.
# Volunteers were enrolled into two cohorts stratified for renal function calculated using the Cockcroft-Gault equation for creatinine clearance (CLCR). Subjects were assigned to groups based on an estimated CLCR at screening as calculated using the Cockcroft-Gault equation.
# Subjects were grouped according to degree of renal dysfunction: mild (CLCR≥60 and <90 mL/min), moderate (CLCR≥30 and <60 mL/min), or severe (CLCR≥15 and <30 mL/min)
# [4] = P1, second measurement set 6 months after the first
# [5] = single 150 mg migalastat HCl, Mild (N = 8)
# [6] = single 150 mg migalastat HCl, Moderate (N = 8)
# [7] = single 150 mg migalastat HCl, Normal (N = 8)
# [8] = single 150 mg migalastat HCl, Severe (N = 8)
compound,measurement,setting,value
"OC[C@H]1NC[C@H](O)[C@@H](O)[C@H]1O [migalastat, (2R,3S,4R,5S)-2-(hydroxymethyl) piperdine-3,4,5-triol]",increase of C48 concentration,[1]; [4],49%
same,increase of Cmax,[1]; [4],33%
same,concentration at 3 h,"[1]; human, plasma, Migalastat Conc 6 months later, Fabry patient P1, moderate renal impairment",2160 ng/mL
same,concentration at 24 h,"[1]; human, plasma, Migalastat Conc 6 months later, Fabry patient P1, moderate renal impairment, 24 Hrs Post",211 ng/mL
same,concentration at 48 h,"[1]; human, plasma, Migalastat Conc 6 months later, Fabry patient P1, moderate renal impairment, 48 Hrs Post",62.4 ng/mL
same,concentration at 3 h,"[1]; human, plasma, Migalastat Conc, Fabry patient P1, moderate renal impairment",1620 ng/mL
same,concentration at 24 h,"[1]; human, plasma, Migalastat Conc, Fabry patient P1, moderate renal impairment, 24 Hrs Post",168 ng/mL
same,concentration at 48 h,"[1]; human, plasma, Migalastat Conc, Fabry patient P1, moderate renal impairment, 48 Hrs Post",41.8 ng/mL
same,concentration at 2 h,"[1]; human, plasma, Migalastat Concentration, Fabry patient P2, severe renal impairment, 2 h, Occasion 1",564 ng/mL
same,concentration at 24 h,"[1]; human, plasma, Migalastat Concentration, Fabry patient P2, severe renal impairment, 24 h, Occasion 2",569 ng/mL
same,concentration at 48 h,"[1]; human, plasma, Migalastat Concentration, Fabry patient P2, severe renal impairment, 48 h, Occasion 1",322 ng/mL
same,concentration at 48 h,"[1]; human, plasma, Migalastat Concentration, Fabry patient P2, severe renal impairment, 48 h, Occasion 2",260 ng/mL
same,"Plasma lyso-Gb3, change from baseline, mean","[2]; Migalastat→Migalastat 0-24 months, renal subgroup 30 to < 60",-29.0 nmol/L
same,"Plasma lyso-Gb3, change from baseline, mean","[2]; Migalastat→Migalastat 0-24 months, renal subgroup ≥60",-7.7 nmol/L
same,"Plasma lyso-Gb3, change from baseline, mean","[2]; Placebo→Migalastat 6-24 months, renal subgroup ≥60",-20.0 nmol/L
same,concentration at 3 h,"[3]; Comparison to Example 1 Moderate Impairment (migalastat concentration), moderate impairment, 3 Hrs Post",1870 ng/mL
same,concentration at 24 h,"[3]; Comparison to Example 1 Moderate Impairment (migalastat concentration), moderate impairment, 24 Hrs Post",239 ng/mL
same,concentration at 48 h,"[3]; Comparison to Example 1 Moderate Impairment (migalastat concentration), moderate impairment, 48 Hrs Post",64.5 ng/mL
same,concentration at 2 h,"[3]; Comparison to Example 1 Severe Impairment (migalastat concentration), severe impairment, 2 h",1550 ng/mL
same,concentration at 24 h,"[3]; Comparison to Example 1 Severe Impairment (migalastat concentration), severe impairment, 24 h",770 ng/mL
same,concentration at 48 h,"[3]; Comparison to Example 1 Severe Impairment (migalastat concentration), severe impairment, 48 h",334 ng/mL
same,AUC(0-inf),[3]; [5],14500 ng·h/mL
same,AUC(0-t),[3]; [5],14400 ng·h/mL
same,Cmax,[3]; [5],2190 ng/mL
same,concentration at 48 h,"[3]; single 150 mg migalastat HCl, Mild (N = 8), read-out: C48",9.34 ng/mL
same,half-life,[3]; [5],460 min
same,AUC(0-inf),[3]; [6],22500 ng·h/mL
same,AUC(0-t),[3]; [6],22100 ng·h/mL
same,Cmax,[3]; [6],1870 ng/mL
same,Tmax,[3]; [6],3 h
same,concentration at 48 h,"[3]; single 150 mg migalastat HCl, Moderate (N = 8), read-out: C48",64.5 ng/mL
same,half-life,[3]; [6],1330 min
same,AUC(0-inf),[3]; [7],12400 ng·h/mL
same,AUC(0-t),[3]; [7],12300 ng·h/mL
same,Cmax,[3]; [7],2100 ng/mL
same,concentration at 48 h,"[3]; single 150 mg migalastat HCl, Normal (N = 8), read-out: C48",5.7 ng/mL
same,half-life,[3]; [7],385 min
same,AUC(0-inf),[3]; [8],56200 ng·h/mL
same,AUC(0-t),[3]; [8],53100 ng·h/mL
same,Cmax,[3]; [8],2080 ng/mL
same,Tmax,[3]; [8],4.27 h
same,concentration at 48 h,"[3]; single 150 mg migalastat HCl, Severe (N = 8), read-out: C48",334 ng/mL
same,half-life,[3]; [8],1940 min
